# Reference: patent US4065575A, “3-Aminomethyl derivatives of 4-chromanone” (Joullie International, priority 1975, dated 1977)
# Entries after “also recorded” stand apart in the source; their conditions may differ. Structures can show the parent of a compound that is named as a salt.
# How the values were obtained:
# [1] = Cardiovascular action in dogs; type: in vivo, male Beagle dogs
# Experimental: Male Beagle dogs weighing 9 to 12 kg. were anaesthetised by intrasaphenous injection of a 2% solution of chloralose in physiological solution, at a dose of 100 mg./kg.
# The anaesthesia is maintained by slow perfusion of 5% pentobarbital (1.2 ml./hour).
# The animals are tracheotomised and placed under assisted respiration by means of a Bird respirator. Their oxygenation and their acid-base equilibrium are controlled by determination of the pH, the pCO2 and the pO2 on blood samples taken from a collateral of the brachial artery (pH/gas analyser for blood, IL model 213/227).
# The different parameters are recorded on a polygraph.
# ADP platelet aggregation = assay: ADP aggregation test; type: cell-based; conditions: in words
# [2] = system: isolated auricle of a rabbit; assay: Peripheral vasomotoricity, isolated and perfused auricle of a rabbit
# Experimental: The flow rate of the liquid issuing from the veins is recorded by electronic contact on a polygraph. The products to be studied are injected at increasing doses into the perfusion tube and their actions are compared to that of isoxsuprine used as the reference substance.
# The results, collected in Table No. III, are expressed in the maximum percentage increase of the flow rate at the various doses used.
# [3] = Acute toxicity in mice (LD 50); type: in vivo; conditions: mouse, in vivo, mice, 15 days observation
# Experimental: (§1) The study is carried out on batches of 5 Swiss female mice of the NMRI Han. strain. The products are administered either intravenously (into the caudal vein) in solution in a 9 g..permill. sodium chloride solution, or orally (probang) in suspension in a 10% solution of gum arabic.
# (§2) The animals are observed for the 15 days following the administration of the products.
# (§3) The LD 50 values are calculated by the method of Karber and Behrens (Arch. Exp. Pathol. Pharm. 177, 1935, page 379).
# mice = assay: Acute toxicity in mice (LD 50); type: in vivo; conditions: intravenous; in words
# Experimental: as §1, §2, §3
# platelet aggregation = assay: Anti-platelet-aggregation in vitro; type: cell-based; conditions: in words
# [4] = system: hypertensive effects of electrical stimulation, adrenaline and noradrenaline; assay: α-Sympatholytic effects in amyeliated rats; type: in vivo; conditions: for % variation of the hypertensive effects obtained with adrenaline: adrenaline 1.25 to 2.5 μg./kg.; for % variation of the hypertensive effects obtained with noradrenaline: noradrenaline 1.25 to 2.5 μg./kg.
# Description: The α-sympatholytic effects of LJ 1052 and LJ 1053 are compared with those of isoxsuprine in amyeliated rats which have been prepared by a method derived from those of Shipley and Tilden (Proc. soc. Exp. Biol. Med. 1947, 64, 453-455) and of Gillespie and Muir (Br. J. Pharmac. Chemother. 1967, 30, 78-87).
# The effects on the blood pressure of electrical stimulation of the thoracolumbar sympathic nerve (rectangular signals = voltage 20 to 40 volts; width 2 m. sec; frequency 10 secs.; duration 5 to 10 secs.) and of injections of adrenaline (1.25 to 2.5 μg./kg.) and of noradrenaline (1.25 to 2.5 μg./kg.) are determined before and after injection of the products tested.
# [5] = 0.04 mg./kg. i.v. (1/1,000 LD 50)
# [6] = 0.04 mg./kg. i.v. (1/1,000 LD 50), first or only phase
# [7] = dose 50 g./kg. (so in the source)
# [8] = dose 100 g./kg. (so in the source)
# [9] = dose 500 g./kg. (so in the source)
# [10] = dose 2,500 g./kg. (so in the source)
smiles,measurement,setting,value
"COCCNCC1COc2ccccc2C1=O (stereo not drawn) [LJ 1052, 3-(2-Methoxyethylaminomethyl)-4-chromanone hydrochloride]","Diastolic AP, duration of action",[1]; [5],2 min
same,"Diastolic AP, maximum per cent variation",[1]; [5],-29%
same,"FF, duration of action",[1]; [5],30 min
same,"Hb (heart beat), maximum per cent variation",[1]; [5],+14%
same,"Hb, duration of action",[1]; [5],25 min
same,"LVP, duration of action",[1]; [5],25 min
same,"Mean AP, duration of action",[1]; [5],2 min
same,"Mean AP, maximum per cent variation",[1]; [5],-25%
same,"Systolic AP, duration of action",[1]; [5],30 min
same,"Systolic AP, maximum per cent variation",[1]; [5],+13%
same,"LVP (left ventricular pressure), maximum per cent variation",[1]; [6],+9%
same,"dLVP/dt, maximum per cent variation",[1]; [6],+34%
same,"dLVP/dt, duration of action","[1]; 0.04 mg./kg. i.v. (1/1,000 LD 50), only phase",30 min
same,cardiovascular action compared with isoxsuprine,[1]; in words,comparable to or even greater than that of isoxsuprine
same,femoral flow rate,"[1]; low doses, in words",activity comparable to that of isoxsuprine
same,anti-aggregation activity compared with adenosine,ADP platelet aggregation,almost as active as adenosine
same,activation at 0.0001 mg,"[2]; Oryctolagus cuniculus, dose 0.1 μg., read-out: Maximum variations in the flow rate",79%
same,activation at 0.001 mg,"[2]; Oryctolagus cuniculus, dose 1 μg., read-out: Maximum variations in the flow rate",77%
same,activation at 0.01 mg,"[2]; Oryctolagus cuniculus, dose 10 μg., read-out: Maximum variations in the flow rate",100%
same,activation at 0.1 mg,"[2]; Oryctolagus cuniculus, dose 100 μg., read-out: Maximum variations in the flow rate",150%
same,duration of the effects / of the action,[2]; at the highest doses,≥ 30 min
same,peripheral vasodilatory action,"[2]; in words, hydrochloride",great; also recorded: as active as isoxsuprine; also recorded: great even at very low doses
same,LD50 at 360 h,[3]; intravenous administration,47 mg/kg
same,LD50 at 360 h,[3]; oral administration,475 mg/kg
same,intravenous LD 50 in mice (comparison of three products),mice,practically identical
same,anti-platelet-aggregation properties,platelet aggregation,marked anti-platelet-aggregation properties in vitro
same,% variation of the hypertensive effects obtained with electrical stimulation,[4]; [7],0%
same,% variation of the hypertensive effects obtained with adrenaline,[4]; [7],-15%
same,% variation of the hypertensive effects obtained with noradrenaline,[4]; [7],-11%
same,% variation of the hypertensive effects obtained with electrical stimulation,[4]; [8],0%
same,% variation of the hypertensive effects obtained with adrenaline,[4]; [8],-28%
same,% variation of the hypertensive effects obtained with noradrenaline,[4]; [8],-12%
same,% variation of the hypertensive effects obtained with electrical stimulation,[4]; [9],-20%
same,% variation of the hypertensive effects obtained with adrenaline,[4]; [9],-77%
same,% variation of the hypertensive effects obtained with noradrenaline,[4]; [9],-38%
same,% variation of the hypertensive effects obtained with electrical stimulation,[4]; [10],-80%
same,% variation of the hypertensive effects obtained with adrenaline,[4]; [10],-77%
same,% variation of the hypertensive effects obtained with noradrenaline,[4]; [10],-50%
same,"α-sympatholytic effect, comparison","[4]; same doses, in words",less α-sympatholytic than LJ 1053 and isoxsuprine
